For series [1], the system named is LTC4 production in MC/9 cells. In words: MC/9 HPLC assay, inhibition of LTC4 production. The note with it: Mus musculus; for inhibition at 3 µM: MC9, 3 μM, A23187 stimulated; for inhibition at 1 µM: MC9, Table 2 column 3, no concentration in head (1 μM according to b732), read-out: % Inhibition LTC4. The series is classed as cell-based. In short, it runs like this: (§1)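 MC/9 cells (3×10^6 in HBSS) pre-incubated 30 min with compound, then stimulated 20 min at room temperature with 1 μM A23187. After methanol quench and C18 solid-phase extraction, LTB4 and LTC4 quantified by HPLC against reference standards; inhibition relative to control samples.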

For series [2], the system named is LTB4 production in MC/9 cells. In words: MC/9 HPLC assay, inhibition of LTB4 production. The series is classed as cell-based. The note with it: Mus musculus, MC9, Table 2 column 4, no concentration in head (1 μM according to b732), read-out: % Inhibition LTB4. Put shortly:
as §1

The subject of a further series is AA-induced ear edema. Nature of the series: Arachidonic acid (AA) induced mouse ear edema model. The note with it: 4 hrs and 1 hr before AA 2 mg/ear, mice; for % Inhibition AA-Induced ear edema (1 mg/ear): topical 1 mg/ear. The series is classed as in vivo, CD-1 mice. The procedure: One group serves as a control and receives 20 μL of vehicle applied to the pinna of each ear (10 μL to the inside and 10 μL to the outside of the pinna). One or more additional groups serve as test groups. The test compound was applied to the pinna of one ear of the mouse in a 20 μL volume (10 μL to the inside and 10 μL to the outside of the pinna). Test compound or control vehicle (acetone/1% DMSO) was applied topically to the right ear 4 and 1 hour before the application of 2 mg/ear AA as a stimulus to both the inner and outer surfaces of CD-1 mice. The left ears received vehicle (acetone/1% DMSO) alone. The animal was lightly anesthetized again using isofluorane to enable application of the stimulus. For the control group, arachidonic acid (2 mg/ear) was applied as the stimulus to the pinna of one ear only, in a total volume of 20 μL of acetone (10 μL applied to the inside and 10 μL to the outside of the pinna). The other ear received 20 μL of acetone. This served to determine the increase in ear weight due to arachidonic acid in the absence of test compounds. For the test groups, arachidonic acid (2 mg/ear) was applied as the stimulus to the pinna of each ear, in a total volume of 20 μL of acetone (10 μL applied to the inside and 10 μL to the outside of the pinna). The animal was allowed to recover after application of the stimulus in each case. After 60 minutes the animal was euthanized and a standard biopsy sample was taken from each ear using a 6 mm skin biopsy punch (Acuderm). Ear edema was determined by the increase in weight of the tissue due to accumulation of fluid as a result of plasma extravasation. The ears were weighed separately using a balance suitable to record 0.1 mg. For the control group, the difference in ear weights was determined by subtracting the weight of the unstimulated ear from the stimulated ear, and this was a measure of the increase in ear weight due to edema. The percentage increase in ear weight was determined by dividing the increase in stimulated ear weight by the unstimulated ear weight and multiplying by 100. For the test groups, the difference in ear weights was determined by subtracting the weight of the untreated ear from the weight of the ear treated with test compound. The percent inhibition of the increase in ear weight for ears treated with the test compound was estimated by first subtracting the mean ear weight of the untreated controls from each tissue to determine the increase in tissue weight due to application of the arachidonic acid. The percent inhibition=1−(test drug stimulated ear (mg)/control stimulated ear (mg))×100. In Table 5, the data from inhibition of AA-induced ear edema in mice by topical application of compounds is provided. Compounds (0.3 or 1 mg/ear) were applied topically to the ear 4 hrs and 1 hr prior to application of arachidonic acid (AA; 2 mg/ear).

The subject of series [3] is LTB4 production in porcine or human whole blood. Nature of the series: Whole blood HPLC assay, inhibition of LTB4 production. The series is classed as cell-based. The conditions noted are these: 5 point curve, porcine or human whole blood (not specified). Put shortly:
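Porcine or human whole blood was pre-incubated 30 min with compound, then stimulated 20 min at room temperature with 20 μM A23187 (porcine blood also received 20 μM arachidonic acid). Plasma LTB4 was extracted on C18 and quantified by HPLC against reference standards. IC50 from a 5-point curve, with inhibition relative to controls.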

Series [4] deals with T1, recombinant human leukotriene A4 hydrolase enzyme (Homo sapiens, UniProt P09960).
T1 construct: purchased Cayman Chemical 10007817
T1 sequence (P09960 1-611): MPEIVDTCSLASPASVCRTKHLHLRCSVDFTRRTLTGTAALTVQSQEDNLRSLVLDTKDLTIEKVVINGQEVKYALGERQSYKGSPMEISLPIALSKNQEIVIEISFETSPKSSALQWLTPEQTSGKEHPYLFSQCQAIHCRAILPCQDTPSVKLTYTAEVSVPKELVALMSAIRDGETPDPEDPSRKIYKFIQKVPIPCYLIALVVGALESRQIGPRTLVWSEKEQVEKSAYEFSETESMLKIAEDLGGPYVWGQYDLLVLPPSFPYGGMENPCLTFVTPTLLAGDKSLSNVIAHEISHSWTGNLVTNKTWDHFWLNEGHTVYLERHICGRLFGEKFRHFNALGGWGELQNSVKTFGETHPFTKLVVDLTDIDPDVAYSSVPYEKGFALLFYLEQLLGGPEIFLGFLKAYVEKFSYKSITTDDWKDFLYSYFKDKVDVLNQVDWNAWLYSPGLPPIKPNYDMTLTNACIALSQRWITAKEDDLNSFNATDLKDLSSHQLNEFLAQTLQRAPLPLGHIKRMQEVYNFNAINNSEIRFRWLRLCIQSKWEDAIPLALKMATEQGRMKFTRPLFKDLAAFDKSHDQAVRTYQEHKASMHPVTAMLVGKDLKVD
In words: Amino-peptidase assay, alanine-4-nitroanalide. The series is classed as biochemical. The conditions noted are these: negative values = augmented peptidase activity, read-out: % Inhibition aminopeptidase-Alanine-4-nitroanalide activity of LTA4H (3 μM). Put shortly: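 Compounds pre-incubated in the dark with recombinant human LTA4H (0.5 μg) in 50 mM Tris-HCl, 100 mM KCl; reaction started with alanine-4-nitroanilide (6 mM solution). Aminopeptidase rate followed as A405 from 4-nitroaniline, referenced to a standard; inhibition calculated versus controls, with negative values indicating augmented activity.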

Series [5] is described as follows: Solubilized concentration of compound in eye drop formulation (HPLC). The series is classed as physicochemical. The conditions noted are these: eye drop formulation: 20% hydroxypropyl β-cyclodextrin, 0.5% HPMC, 1.6 mM EDTA in PBS. The protocol: (§2) Eye drops were prepared by adding compounds at a theoretical concentration of 10 mg/mL to a 2 mL microcentrifuge tube before adding a stir bar and the selected formulation that consisted of (w/v) hydroxypropyl β-cyclodextrin (Trappsol) (20%), hydroxyl propyl methylcellulose (0.5%) and EDTA (1.6 mM) in phosphate buffered saline. Tubes containing compound in eye drop formulation were heated to 60-65° C. and stirred at least 4 hours to overnight. The tubes were removed from the heat bath and centrifuged at 10,000 ref for 5 minutes to clear the solution of any residual drug not in solution. The supernatant was removed from the tubes and one 10 μL sample was removed for HPLC analysis of solubilized by HPLC using an ACE C18 column (4.5 mm×150 mm, 5 m), eluted with acetonitrile/methanol/water mixture with H3PO4, pH 3.5 (50:30:20) with a flow rate of 2.5 mL/min. The solubilized concentration of each compound was calculated by interpolation from a standard curve based on reference standards solubilized in methanol when the assay was validated.
In Table 6, the data from distribution studies performed in Lewis rats show the concentration of each compound present in the retina 0.5 hr after the administration of a 10 μL drop of each topical formation is provided. Compounds were paired and individual formulations mixed at a ratio to make a mixture that contained ~2.5 mg/mL of each compound.

Series [6] is described as follows: Rat ocular distribution model, retina after topical drop. The conditions noted are these: Lewis rats, 10 μL topical drop. The series is classed as in vivo. The procedure:
as §2
Compounds were applied as a single 10 μL drop to rats and the aqueous humor, and the posterior segment of the eye (vitreous body and retina) were collected from each eye at the time point assigned after the eye was irrigated to remove any residual formulation present. Tissues were collected in pre-weighed collection tubes and the tissue weight was determined for each sample. An internal standard (IS) mixture containing a reference compound at a ratio of 1 μL to 4 mg tissue was added to samples, mixed and then diluted×4.25 in acetonitrile:methanol (9:1). Aqueous humour samples were vortex mixed for 10 s. The vitreous body & retina were vortex mixed 2 times each for 10 s, and further mixed for 6 min on a tabletop shaker at 750 rpm followed by final vortex mixing (10 s). All samples were centrifuged to pellet any particulate matter and the supernatant was transferred to LC vials. A 10 μL sample was then applied to the HPLC during LC/MS/MS analysis. A calibration curve for compounds (0.588-176.471 ng/mL) was prepared in rat plasma to estimate concentrations of compounds in each of the matrices analyzed using the area under curve (AUC) normalized to internal standard AUC for determining response. The assumption was made that 1 mg tissue is equivalent to 1 μL plasma. Concentrations measured in each tissue were then normalized to the amount of drug applied to account for differences in solubilized drug in each formulation. The average concentration and the standard deviation was determined based on “n”=number of eyes assessed, rather than the number of animals. […]

The test system of series [7] is endogenous leukotriene production. The conditions noted are these: estimated; cited from earlier work.

Usually inhibition stands for the drop in the measured response relative to a control, in per cent. As usually defined, the IC50 is the midpoint of a concentration-inhibition curve. Take `COc1cc(CCC(C)(O)C(F)(F)F)ccc1Oc1nc2c(SC)cccc2s1` (stereo not drawn) [Compound 119, 1,1,1-trifluoro-4-(3-methoxy-4-{[4-(methylsulfanyl)-1,3-benzothiazol-2-yl]oxy}phenyl)-2-methylbutan-2-ol]: in series [1], the inhibition at 3 µM is more than 90% and the inhibition at 1 µM is more than 90%. Further, the inhibition at 1 µM in series [2] is more than 90%. Also, the “% Inhibition AA-Induced ear edema (0.3 mg/ear)” value in the series on AA-induced ear edema (topical 0.3 mg/ear) is on record as 30-50%. For the same compound, the “% Inhibition AA-Induced ear edema (1 mg/ear)” value in the series on AA-induced ear edema is recorded as 50-70%. Also, the IC50 in series [3] lay in the range of 1000 to 10000 nM.

Regarding `CCC(CCc1ccc(Oc2nc3ccccc3s2)cc1)N1CCCC1` (stereo not drawn) [Compound 158, 2-{4-[3-(pyrrolidin-1-yl)pentyl]phenoxy}-1,3-benzothiazole], the figures for the inhibition at 3 µM in series [1] and in series [4] were less than 10% and 50 to 75%, respectively. Further, the inhibition at 1 µM in series [1] was 10 to 30%; in series [2] it was more than 90%. Further, the “% Inhibition AA-Induced ear edema (1 mg/ear)” value with AA-induced ear edema is 10-30%. The IC50 in series [3] fell in the range of 100 to 1000 nM.

The compound `CCC(C)(O)CCc1ccc(Oc2nc3c(SC)cccc3s2)c(OC)c1` (stereo not drawn) [Compound 191, 1-(3-methoxy-4-{[4-(methylsulfanyl)-1,3-benzothiazol-2-yl]oxy}phenyl)pentan-3-methyl-3-ol] registered a Concentration of compound in formulation in series [5] of 1650 µg/mL. Moreover, the “Concentration of compound in retina 0.5 hr after administration per mg compound applied (Avg ± SD) n = 2” value in series [6] is 4872 ± 1672 ng/mL per mg compound applied. Moreover, in series [1], the inhibition at 3 µM was more than 90%.

As to `CCC(O)CCc1ccc(Oc2nc3c(SC)cccc3s2)c(OC)c1` (stereo not drawn) [Compound 193, 1-(3-methoxy-4-{[4-(methylsulfanyl)-1,3-benzothiazol-2-yl]oxy}phenyl)pentan-3-ol], in series [5], the Concentration of compound in formulation is 2530 µg/mL. The “Concentration of compound in retina 0.5 hr after administration per mg compound applied (Avg ± SD) n = 2” value in series [6] is listed as 15690 ± 9863 ng/mL per mg compound applied. Also, in series [1], the inhibition at 3 µM lay within 70 to 90% and the inhibition at 1 µM was more than 90%. For the same compound, the inhibition at 1 µM in series [2] is more than 90%.

`CCC(O)(CCc1ccc(Oc2nc3c(SC)cccc3s2)cc1)C(F)(F)F` (stereo not drawn) [Compound 195, 1-(4-{[4-(methylsulfanyl)-1,3-benzothiazol-2-yl]oxy}phenyl)-3-(trifluoromethyl)pentan-3-ol]: the Concentration of compound in formulation in series [5] was determined as 3640 µg/mL. The “Concentration of compound in retina 0.5 hr after administration per mg compound applied (Avg ± SD) n = 2” value in series [6] was 3343 ± 2.4 ng/mL per mg compound applied. The inhibition at 3 µM in series [1] is more than 90%.

Turning to `CC(c1cc2ccccc2s1)N(O)C(N)=O` (stereo not drawn) [Zileuton], the “Inhibition of endogenous leukotriene production” value in series [7] is reported as 26-86%.

Source of the values: patent US12686668B2, “Leukotriene synthesis inhibitors” (Naegis Pharmaceuticals Inc., priority 2019, dated 2026).
